Legend:
[1] = molecular target: T1, p75-Fc (Homo sapiens, UniProt P08138); experiment: Competitive ELISA, p75-Fc binding to immobilized NGF; conditions: for remaining activity at 30 µM: 0.75 h, binding to immobilized NGF, no cpd = 100%, p75-Fc 50 nM, as described for FIG. 1A (compounds 30 μM), below 100% indicates inhibition
T1 construct: purchased R&D
T1 sequence (P08138 29-250 limits assumed): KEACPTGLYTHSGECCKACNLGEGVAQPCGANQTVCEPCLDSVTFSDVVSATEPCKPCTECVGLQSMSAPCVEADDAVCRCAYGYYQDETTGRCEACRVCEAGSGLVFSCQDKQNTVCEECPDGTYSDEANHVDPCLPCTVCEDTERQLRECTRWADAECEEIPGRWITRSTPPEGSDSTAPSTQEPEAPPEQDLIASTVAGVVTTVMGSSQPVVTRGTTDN
Description: (§1) The effect of compounds I-B and LM-24 on the binding between NGF and p75 was tested in competitive ELISA assays, where the antagonists prevent soluble p75 from binding to immobilized NGF. The selectivity of antagonism was evaluated by lack of effect upon NGF-TrkA or lack of effect between NGF and anti-NGF monoclonal antibody (mAb) NGF30 interactions (FIG. 1A).
The compound LM-24 has been reported by others (Massa et al., 2006). Binding studies were carried out with all the compounds using I-B as reference.
(§2) Competitive ELISAs were performed as described (Saragovi et al., 1998). The procedure immobilized 50 ng/well NGF, or pro-NGF (Alomone Labs, Israel) onto polystyrene 96-well microtest plates, with washing and blocking with binding buffer (BB; phosphate buffered saline containing 0.5% bovine serum albumin). The following primary reagents in BB were added: recombinant chimeric p75-Fc or recombinant chimeric TrkA-Fc (R&D), or anti-NGF mAb NGF30 (Saragovi et al., 1998); each at 50 nM. The competitors I-B and the other test compounds (or control LM-24) were added at the indicated concentrations, and the plates were incubated for 45 minutes. After washing 3× in BB, HRP-conjugated secondary reagents (Sigma) were added for 30 min (goat anti-human Fc for p75-Fc and for TrkA-Fc; and goat anti-rat Ab for NGF30 mAb), and then wells were washed 3× in BB and 1× in PBS. Peroxidase activity was determined colorimetrically using the substrate TMB One Solution (Promega). The reaction was stopped with 0.5 N H2SO4 and the plates were read at 450 nm (Benchmark Plus, Bio-Rad). Assays were repeated n>4 times, with replicates of 4 wells each assay. […] Wells with no NGF immobilized but with all other reagents added were treated as background (<15% of maximal signals) and standardized to 0% binding.

[2] = molecular target: T2, TrkA-Fc (Homo sapiens, UniProt P04629); experiment: Competitive ELISA, TrkA-Fc binding to immobilized NGF (selectivity control); conditions: for TrkA-Fc binding AVERAGE: binding to immobilized NGF, no cpd = 100%, TrkA-Fc 50 nM, as described for FIG. 1A
T2 construct: purchased R&D
Description: as §1, §2

[3] = test system: anti-NGF mAb NGF30; experiment: Competitive ELISA, anti-NGF mAb NGF30 binding to immobilized NGF (selectivity control); conditions: for NGF30 binding AVERAGE: binding to immobilized NGF, no cpd = 100%, mAb NGF30 50 nM, as described for FIG. 1A
Description: as §1, §2

[4] = test system: NGI (NFL-GCL-IPL) retinal layers; experiment: ON axotomy model, retinal NGI thickness by FD-OCT; assay type: in vivo; conditions: rat ON axotomy, 3 μg intravitreal immediately after axotomy, days 11 and 14, versus untreated axotomy
Description: Antagonists of p75NTR prevented loss of retinal structure after ON axotomy. The relative in vivo efficacy for I-B and LM-24 was tested using the ON axotomy model. A quantitative non-invasive structural endpoint, FD-OCT, was performed in the same animal over time to measure the integrity of the neuronal layers. We quantified the axons and fibers of the RGCs that contribute to the thickness of the Nerve Fiber Layer (NFL), the Ganglion Cell Layer (GCL), and the Inner Plexiform Layer (IPL), herein termed NGI. Maintenance of NGI structure correlates with RGC health (Bai et al., 2010a).
Wistar rats (female, 250-300 g; Charles River) were kept in a 12 hours dark-light cycle with food and water ad libitum. All animal manipulations were performed between 9 AM and 12 AM. […]
FD-OCT is a non-invasive method that allows time-kinetic studies in the same animal. […] In each B-scan the thickness of the NFL-GCL-IPL (NGI) was measured at four adjacent points at a distance 1.5 mm from the ON head. […]
(§3) For studies in the glaucoma animal model the injections were performed at days 14 and 21 after cauterization. […] Thus, in this paradigm there is pre-existing damage for 14 days before treatment (measured at ˜8% RGC death (Shi et al., 2007; Shi et al., 2008)); and the treatments require long-lived efficacy in the constant presence of retinal stress due to high IOP. […]

[5] = test system: retinal ganglion cells (RGCs); experiment: ON axotomy model, quantification of surviving RGCs (fluorogold labeled); assay type: in vivo; conditions: rat ON axotomy, one intravitreal injection 3 μg, day 14; contralateral normal eye = 100%; control axotomy 10%
Description: (§4) Wistar rats (female, 250-300 g; Charles River) were kept in a 12 hours dark-light cycle with food and water ad libitum. All animal manipulations were performed between 9 AM and 12 AM. Deep anesthesia was used during cauterization (induction of glaucoma), ON transection, fluorogold labeling, intraocular injection procedures, Optical Coherence Tomography measurements, and euthanasia (ketamine, xylazine, acepromazine injected intraperitoneally: 50/5/1 mg/kg, as per IACUC recommendations). For measuring IOP, light anesthesia was used (a gas mixture of Oxygen, 2% isofluorane mixture, at a rate of 2.5 liter/min, as per IACUC recommendations).
The ON axotomy model in the rat (Bai et al., 2010a) was used. […]
as §3
(§5) Quantification of labeled RGCs was performed as reported (Shi et al., 2007; Shi et al., 2008). […] Pictures for each freshly flat-mounted retina were taken using a Zeiss fluorescence microscope (Carl Zeiss Meditec, Jena, Germany), with 12 pictures/retina at 20× magnification. […]

[6] = test system: retinal ganglion cells (RGCs); experiment: Glaucoma (episcleral vein cauterization) model, quantification of surviving RGCs; assay type: in vivo; conditions: rat glaucoma, intravitreal injections days 14 and 21, endpoint day 42 (FIG. 2D)
Description: as §4
The episcleral vein cauterization (EVC) model of rat (Shi et al., 2007; Shi et al., 2008) was used. […]
as §3, §5

[7] = test system: B104 cells; experiment: Pro-NTF killing assay (MTT), B104 cells; assay type: cell-based; conditions: 50 nM, 72 hours, p<0.05
Description: (§6) The effect of I-B on the pro-apoptotic function of pro-NGF or pro-BDNF was tested in functional MTT assays measuring cell metabolism (FIG. 1B).
(§7) Cells (5,000 cells/well) were cultured in 96-well plates (Falcon, Lincoln Park, N.J.) in normal culture media (RPMI1640, Hepes, Glutamine, 5% serum). Wells were supplemented with NGF, BDNF, pro-NGF, or pro-BDNF (Alomone Labs) (50 nM final), in the presence or absence of I-B (20 μM final). Wells containing all culture conditions but no cells were used as blanks. The growth/survival profile of the cells was quantified using MTT (Sigma) 72 hours after plating. Optical density readings of MTT were done in a Benchmark Plus microplate Spectrophotometer (BioRad) at 595 nm with blanks subtracted.

[8] = test system: nnr5 cells; experiment: Pro-NTF killing assay (MTT), nnr5 cells; assay type: cell-based; conditions: 50 nM, 72 hours, p<0.05
Description: as §6, §7

[9] = competitive ELISA, FIG. 1A, compound at 30 μM

T2 sequence (P04629 33-423 limits assumed): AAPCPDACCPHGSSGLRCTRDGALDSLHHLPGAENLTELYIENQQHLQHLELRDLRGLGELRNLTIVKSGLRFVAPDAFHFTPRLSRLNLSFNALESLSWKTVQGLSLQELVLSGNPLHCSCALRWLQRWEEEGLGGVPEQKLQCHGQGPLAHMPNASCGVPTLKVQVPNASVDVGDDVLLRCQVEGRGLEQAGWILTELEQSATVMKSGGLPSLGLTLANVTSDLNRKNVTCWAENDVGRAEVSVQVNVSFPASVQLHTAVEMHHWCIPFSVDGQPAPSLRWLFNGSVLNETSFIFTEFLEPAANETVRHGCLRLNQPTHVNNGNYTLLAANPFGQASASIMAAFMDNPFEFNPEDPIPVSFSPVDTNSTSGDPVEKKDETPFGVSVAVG

Molecule | remaining activity at 30 µM [1] [%] | TrkA-Fc binding AVERAGE [2] [%] | further results
Cn1c(=O)c2c(ncn2CC(=O)NCCCC(F)(F)F)n(C)c1=O [I-A, 2-(1,3-dimethyl-2,6-dioxo-2,3-dihydro-1H-purin-7(6H)-yl)-N-(4,4,4-trifluorobutyl)acetamide] | 74 | 105 | NGF30 binding AVERAGE [3]: 86%
Cn1c(=O)c2c(ncn2CC(=O)NCCC(F)(F)F)n(C)c1=O [I-F, 2-(1,3-dimethyl-2,6-dioxo-2,3-dihydro-1H-purin-7(6H)-yl)-N-(3,3,3-trifluoropropyl)acetamide] | 73 | 91 | 
Cn1c(=O)c2c(ncn2CC(=O)OCCCN)n(C)c1=O [II-D, 3′-Aminopropyl (1,3-dimethyl-2,6-dioxo-2,3-dihydro-1H-purin-7(6H)-yl)acetate] | 69 | 116 | NGF30 binding AVERAGE [3]: 91%
COC(=O)Cn1cnc2c1c(=O)n(C)c(=O)n2C [II-H] | 72 | 94 | 
CCCn1c(=O)c2c(ncn2CC(=O)OC)n(CCC)c1=O [II-N, Methyl 2-(2,6-dioxo-1,3-dipropyl-2,3-dihydro-1H-purin-7(6H)-yl)acetate] | 83 |  | 
CN(C)CCCNC(=O)Cn1cnc2c1c(=O)n(C)c(=O)n2C [LM-24, reference compound] |  |  | effect on NGF-p75NTR interaction [1, 9]: antagonized NGF-p75NTR interactions selectively; effect on binding of TrkA to NGF [2, 9]: did not interfere; effect on mAb NGF30 binding to NGF [3, 9]: did not interfere; preservation of NGI thickness (FD-OCT) [4]: very limited preservation of the NGI thickness; RGCs surviving [5]: 21%; prevention of RGC death [6]: significantly prevent the death of RGCs
Pro-NGF: precursor of nerve growth factor (Alomone Labs), pro-apoptotic p75 ligand |  |  | cell viability (MTT), growth factor alone [7]: reduced the viability; cell viability (MTT), growth factor alone [8]: reduced the viability
pro-BDNF: precursor of brain derived neurotrophic factor (Alomone Labs), pro-apoptotic p75 ligand (protein, UniProt P23560 19-247, looked up, pro-form, precursor of brain derived neurotrophic factor (Alomone Labs), pro-apoptotic p75 ligand) pro-form: APMKEANIRGQGGLAYPGVRTHGTLESVNGPKAGSRGLTSLADTFEHVIEELLDEDQKVRPNEENNKDADLYTSRVMLSSQVPLEPPLLFLLEEYKNYLDAANMSMRVRRHSDPARRGELSVCDSISEWVTAADKKTAVDMSGGTVTVLEKVPVSKGQLKQYFYETKCNPMGYTKEGCRGIDKRHWNSQCRTTQSYVRALTMDSKKRIGWRFIRIDTSCVCTLTIKRGR |  |  | cell viability (MTT), growth factor alone [7]: reduced the viability; cell viability (MTT), growth factor alone [8]: reduced the viability

More lines, main results first:

remaining activity at 30 µM [1] [%] | TrkA-Fc binding AVERAGE [2] [%] | Molecule | further results
62 | 99 | Cn1c(=O)c2c(ncn2CC(=O)N(C(=O)NC2CCCCC2)C2CCCCC2)n(C)c1=O [I-G] | 
53 |  | CC(C)NC(=O)N(C(=O)Cc1c[nH]c2ccccc12)C(C)C [I-Q, 2-(1H-indol-3-yl)-N-isopropyl-N-(isopropylcarbamoyl)acetamide] | 
59 |  | CC(C)NC(=O)N(C(=O)CCc1c[nH]c2ccccc12)C(C)C [I-R, 3-(1H-indol-3-yl)-N-isopropyl-N-(isopropylcarbamoyl)propanamide] | 
56 |  | Cc1ccc(NC(=O)N(C(=O)CCc2c[nH]c3ccccc23)c2ccc(C)cc2)cc1 [I-S, 3-(1H-indol-3-yl)-N-p-tolyl-N-(p-tolylcarbamoyl)propanamide] | 
56 | 94 | Cn1c(=O)c2c(ncn2CC(=O)OCCCNC(=O)OCc2ccccc2)n(C)c1=O [II-E, 3′-(Benzyloxycarbonylamino)propyl (1,3-dimethyl-2,6-dioxo-2,3-dihydro-1H-purin-7(6H)-yl)acetate] | NGF30 binding AVERAGE [3]: 89%

Reference: patent US9296691B2, “Inhibitors of p75 receptor and their uses” (Horacio Uri Saragovi, priority 2010, dated 2016)
